# Laboratory results taken from publication PMC12186298, “Phase 1 clinical trial of eneboparatide, a novel PTH receptor 1 agonist” (Endocrine Connections, 2025).
# Where two headings read alike, the source gives them in different places. Peptide text beside a SMILES is read from it.
# Columns and labels:
# [1] = Plasma pharmacokinetics, multiple ascending dose (Part B); type: in vivo, human; conditions: for AUC(0–∞) / Cmax / Tmax / AUC(0-inf): Part B MAD; for Cmax: LC-MS/MS, mean ± SD
# Experimental: Plasma samples were collected pre-dose and at scheduled time points up to 6 h post-dose on day 1 (Parts A and B) and day 14 (Part B). The analysis of eneboparatide in plasma samples was performed at QPS (The Netherlands) using a hybrid immunoaffinity liquid chromatography–mass spectrometry/mass spectrometry (LC-MS/MS) method, with a validated lower limit of quantification (LLOQ) of 50 pg/mL.
# healthy subjects [2] = assay: Safety and tolerability, adverse events, Part A SAD; type: in vivo, human
# Experimental: Seven sequential cohorts were included in Part A. The first cohort was single-blind and included four subjects, of which three subjects were randomized to receive 5 μg eneboparatide and one subject was randomized to receive placebo. […] Subjects in Part A were admitted to the phase 1 study centre on day 1 and received the study drug at the clinical site on day 1 as a single, subcutaneous abdominal injection in the morning. They were discharged on day 4 and were asked to return for a follow-up (FU) visit on day 5–8.
# healthy subjects [3] = assay: Antidrug antibodies (ADA) in plasma, Part B; type: in vivo, human; conditions: following 14 days of administration
# Experimental: Safety and tolerability assessments consisted of adverse events (AEs), clinical laboratory (clinical chemistry, haematology, coagulation, and urinalysis), vital signs (blood pressure, pulse rate, respiratory rate, and temperature), 12-lead ECG (Part B), 24 h continuous cardiac monitoring (telemetry; Part A), body weight, physical examination, injection site reaction, and measurement of antidrug antibodies (ADA) in plasma (Part B).
# animal models of HP = conditions: cited from earlier work
# patients with cHP = test system: patients with cHP; design: method as in PMID 38449442; conditions: 3 months; cited from earlier work
compound,measurement,setting,value
CC[C@H](C)[C@H](NC(=O)[C@H](CCC(=O)O)NC(=O)[C@H](C)NC(=O)[C@@H](NC(=O)[C@H](Cc1c[nH]cn1)NC(=O)[C@@H](NC(=O)[C@H](CCC(=O)O)NC(=O)[C@H](C)NC(=O)[C@@H](NC(=O)[C@H](CC(C)C)NC(=O)[C@H](CCCCN)NC(=O)[C@H](Cc1c[nH]cn1)NC(=O)[C@H](CC(C)C)NC(=O)[C@H](Cc1ccccc1)NC(=O)[C@H](C)NC(=O)[C@H](CCCNC(=N)N)NC(=O)[C@H](CCCNC(=N)N)NC(=O)[C@H](CCCNC(=N)N)NC(=O)[C@H](C)NC(=O)[C@H](CC(=O)O)NC(=O)[C@H](CCC(N)=O)NC(=O)[C@@H](NC(=O)[C@H](Cc1c[nH]c2ccccc12)NC(=O)[C@H](CCCCN)NC(=O)[C@H](C)NC(=O)[C@H](CCCNC(=N)N)NC(=O)[C@H](CCC(N)=O)NC(=O)[C@H](Cc1c[nH]cn1)NC(=O)[C@H](CCSC)NC(=O)[C@H](CC(C)C)NC(=O)[C@H](CCC(N)=O)NC(=O)[C@@H](NC(=O)[C@H](CCC(=O)O)NC(=O)[C@H](C)NC(=O)[C@@H](NC(=O)[C@H](C)N)C(C)C)[C@@H](C)CC)[C@@H](C)CC)[C@@H](C)CC)[C@@H](C)CC)[C@@H](C)O)C(=O)O [eneboparatide] (H-AVAEIQLMHQRAKWIQDARRRAFLHKLIAEIHTAEI-OH; N-terminus and C-terminus assumed),AUC(0–∞),"[1]; 10 μg/day sc, Day 1, n = 4, mean ± SD",3.26 ± 3.20 ng·h/mL
same,Cmax,"[1]; 10 μg/day sc, Day 1, n = 4, plasma",20.6 ± 3.43 ng/mL
same,Cmax,"[1]; 10 μg/day sc, Day 14, n = 4, plasma",18.4 ± 5.37 ng/mL
same,AUC(0–∞),"[1]; 20 μg/day sc, Day 1, n = 8, mean ± SD",7.69 ± 5.52 ng·h/mL
same,Cmax,"[1]; 20 μg/day sc, Day 1, n = 8, plasma",19.6 ± 5.68 ng/mL
same,AUC(0–∞),"[1]; 40 μg/day sc, Day 1, n = 8, mean ± SD",15.8 ± 11.5 ng·h/mL
same,Cmax,"[1]; 40 μg/day sc, Day 1, n = 8, plasma",23.8 ± 8.97 ng/mL
same,Tmax,"[1]; 40 μg/day sc, Day 14, n = 8, median",10.2 min
same,AUC(0–∞),"[1]; 60 μg/day sc, Day 1, n = 8, mean ± SD",43.3 ± 18.1 ng·h/mL
same,Cmax,"[1]; 60 μg/day sc, Day 1, n = 8, plasma",42.9 ± 30.3 ng/mL
same,Tmax,"[1]; 60 μg/day sc, Day 14, n = 7, median",19.8 min
same,AUC(0–∞),"[1]; 80 μg/day sc, Day 1, n = 8, mean ± SD",64.2 ± 56.1 ng·h/mL
same,Cmax,"[1]; 80 μg/day sc, Day 1, n = 8, plasma",124 ± 105 ng/mL
same,accumulation in plasma,"[1]; after 14 consecutive daily administrations, day 14 vs day 1",absence of accumulation
same,Tmax,"[1]; human, plasma, sc, 10 μg/day, 10 μg/day sc, Day 1, n = 4, median, read-out: Tmax",19.8 min
same,Tmax,"[1]; human, plasma, sc, 10 μg/day, 10 μg/day sc, Day 14, n = 4, median, read-out: Tmax",5.4 min
same,Tmax,"[1]; human, plasma, sc, 20 μg/day, 20 μg/day sc, Day 1, n = 8, median, read-out: Tmax",7.8 min
same,Tmax,"[1]; human, plasma, sc, 20 μg/day, 20 μg/day sc, Day 14, n = 7, median, read-out: Tmax",10.2 min
same,Tmax,"[1]; human, plasma, sc, 40 μg/day, 40 μg/day sc, Day 1, n = 8, median, read-out: Tmax",10.2 min
same,Tmax,"[1]; human, plasma, sc, 60 μg/day, 60 μg/day sc, Day 1, n = 8, median, read-out: Tmax",19.8 min
same,Tmax,"[1]; human, plasma, sc, 80 μg/day, 80 μg/day sc, Day 1, n = 8, median, read-out: Tmax",10.2 min
same,Tmax,"[1]; human, plasma, sc, 80 μg/day, 80 μg/day sc, Day 14, n = 8, median, read-out: Tmax",10.8 min
same,AUC(0-inf),"[1]; human, plasma, 10 μg/day sc, Day 14, n = 4, mean ± SD",2.02 ± 2.41 ng·h/mL
same,AUC(0-inf),"[1]; human, plasma, 20 μg/day sc, Day 14, n = 7, mean ± SD",4.63 ± 3.29 ng·h/mL
same,AUC(0-inf),"[1]; human, plasma, 40 μg/day sc, Day 14, n = 8, mean ± SD",12.5 ± 4.75 ng·h/mL
same,AUC(0-inf),"[1]; human, plasma, 60 μg/day sc, Day 14, n = 7, mean ± SD",58.8 ± 30.3 ng·h/mL
same,AUC(0-inf),"[1]; human, plasma, 80 μg/day sc, Day 14, n = 8, mean ± SD",51.9 ± 51.6 ng·h/mL
same,Cmax,"[1]; human, 20 μg/day sc, Day 14, n = 7, plasma, read-out: Cmax",18.3 ± 6.78 ng/mL
same,Cmax,"[1]; human, 40 μg/day sc, Day 14, n = 8, plasma, read-out: Cmax",23.6 ± 5.5 ng/mL
same,Cmax,"[1]; human, 60 μg/day sc, Day 14, n = 7, plasma, read-out: Cmax",44.9 ± 17.9 ng/mL
same,Cmax,"[1]; human, 80 μg/day sc, Day 14, n = 8, plasma, read-out: Cmax",63.5 ± 28.3 ng/mL
same,"vomiting, subjects",healthy subjects [2],none
same,"Catheter site haematoma, subjects with TEAE","healthy subjects [2]; single sc 5 μg, n = 3",0
same,"Decreased appetite, subjects with TEAE","healthy subjects [2]; single sc 5 μg, n = 3",0
same,"Fatigue, subjects with TEAE","healthy subjects [2]; single sc 5 μg, n = 3",0
same,"Headache, subjects with TEAE","healthy subjects [2]; single sc 5 μg, n = 3",1
same,"Injection site erythema, subjects with TEAE","healthy subjects [2]; single sc 5 μg, n = 3",0
same,"Injection site pain, subjects with TEAE","healthy subjects [2]; single sc 5 μg, n = 3",0
same,"Nausea, subjects with TEAE","healthy subjects [2]; single sc 5 μg, n = 3",0
same,"Somnolence, subjects with TEAE","healthy subjects [2]; single sc 5 μg, n = 3",0
same,"Catheter site haematoma, subjects with TEAE","healthy subjects [2]; single sc 10 μg, n = 6",1
same,"Decreased appetite, subjects with TEAE","healthy subjects [2]; single sc 10 μg, n = 6",0
same,"Fatigue, subjects with TEAE","healthy subjects [2]; single sc 10 μg, n = 6",1
same,"Headache, subjects with TEAE","healthy subjects [2]; single sc 10 μg, n = 6",1
same,"Injection site erythema, subjects with TEAE","healthy subjects [2]; single sc 10 μg, n = 6",0
same,"Injection site pain, subjects with TEAE","healthy subjects [2]; single sc 10 μg, n = 6",0
same,"Nausea, subjects with TEAE","healthy subjects [2]; single sc 10 μg, n = 6",0
same,"Somnolence, subjects with TEAE","healthy subjects [2]; single sc 10 μg, n = 6",0
same,"Catheter site haematoma, subjects with TEAE","healthy subjects [2]; single sc 20 μg, n = 6",0
same,"Decreased appetite, subjects with TEAE","healthy subjects [2]; single sc 20 μg, n = 6",1
same,"Fatigue, subjects with TEAE","healthy subjects [2]; single sc 20 μg, n = 6",1
same,"Headache, subjects with TEAE","healthy subjects [2]; single sc 20 μg, n = 6",1
same,"Injection site erythema, subjects with TEAE","healthy subjects [2]; single sc 20 μg, n = 6",0
same,"Injection site pain, subjects with TEAE","healthy subjects [2]; single sc 20 μg, n = 6",1
same,"Nausea, subjects with TEAE","healthy subjects [2]; single sc 20 μg, n = 6",0
same,"Somnolence, subjects with TEAE","healthy subjects [2]; single sc 20 μg, n = 6",0
same,"Catheter site haematoma, subjects with TEAE","healthy subjects [2]; single sc 40 μg, n = 6",0
same,"Decreased appetite, subjects with TEAE","healthy subjects [2]; single sc 40 μg, n = 6",0
same,"Fatigue, subjects with TEAE","healthy subjects [2]; single sc 40 μg, n = 6",0
same,"Headache, subjects with TEAE","healthy subjects [2]; single sc 40 μg, n = 6",0
same,"Injection site erythema, subjects with TEAE","healthy subjects [2]; single sc 40 μg, n = 6",0
same,"Injection site pain, subjects with TEAE","healthy subjects [2]; single sc 40 μg, n = 6",0
same,"Nausea, subjects with TEAE","healthy subjects [2]; single sc 40 μg, n = 6",0
same,"Somnolence, subjects with TEAE","healthy subjects [2]; single sc 40 μg, n = 6",0
same,"Catheter site haematoma, subjects with TEAE","healthy subjects [2]; single sc 60 μg, n = 6",0
same,"Decreased appetite, subjects with TEAE","healthy subjects [2]; single sc 60 μg, n = 6",0
same,"Fatigue, subjects with TEAE","healthy subjects [2]; single sc 60 μg, n = 6",1
same,"Headache, subjects with TEAE","healthy subjects [2]; single sc 60 μg, n = 6",0
same,"Injection site erythema, subjects with TEAE","healthy subjects [2]; single sc 60 μg, n = 6",0
same,"Injection site pain, subjects with TEAE","healthy subjects [2]; single sc 60 μg, n = 6",0
same,"Nausea, subjects with TEAE","healthy subjects [2]; single sc 60 μg, n = 6",1
same,"Somnolence, subjects with TEAE","healthy subjects [2]; single sc 60 μg, n = 6",0
same,"Catheter site haematoma, subjects with TEAE","healthy subjects [2]; single sc 90 μg, n = 6",1
same,"Decreased appetite, subjects with TEAE","healthy subjects [2]; single sc 90 μg, n = 6",2
same,"Fatigue, subjects with TEAE","healthy subjects [2]; single sc 90 μg, n = 6",0
same,"Headache, subjects with TEAE","healthy subjects [2]; single sc 90 μg, n = 6",2
same,"Injection site erythema, subjects with TEAE","healthy subjects [2]; single sc 90 μg, n = 6",2
same,"Injection site pain, subjects with TEAE","healthy subjects [2]; single sc 90 μg, n = 6",2
same,"Nausea, subjects with TEAE","healthy subjects [2]; single sc 90 μg, n = 6",3
same,"Somnolence, subjects with TEAE","healthy subjects [2]; single sc 90 μg, n = 6",1
same,"Catheter site haematoma, subjects with TEAE","healthy subjects [2]; single sc 120 μg, n = 6",1
same,"Decreased appetite, subjects with TEAE","healthy subjects [2]; single sc 120 μg, n = 6",3
same,"Fatigue, subjects with TEAE","healthy subjects [2]; single sc 120 μg, n = 6",0
same,"Headache, subjects with TEAE","healthy subjects [2]; single sc 120 μg, n = 6",3
same,"Injection site erythema, subjects with TEAE","healthy subjects [2]; single sc 120 μg, n = 6",0
same,"Injection site pain, subjects with TEAE","healthy subjects [2]; single sc 120 μg, n = 6",0
same,"Nausea, subjects with TEAE","healthy subjects [2]; single sc 120 μg, n = 6",4
same,"Somnolence, subjects with TEAE","healthy subjects [2]; single sc 120 μg, n = 6",4
same,"Catheter site haematoma, subjects with TEAE","healthy subjects [2]; total eneboparatide, n = 39",3 (7.7) n (%)
same,"Decreased appetite, subjects with TEAE","healthy subjects [2]; total eneboparatide, n = 39",6 (15.4) n (%)
same,"Fatigue, subjects with TEAE","healthy subjects [2]; total eneboparatide, n = 39",3 (7.7) n (%)
same,"Headache, subjects with TEAE","healthy subjects [2]; total eneboparatide, n = 39",8 (20.5) n (%)
same,"Injection site erythema, subjects with TEAE","healthy subjects [2]; total eneboparatide, n = 39",2 (5.1) n (%)
same,"Injection site pain, subjects with TEAE","healthy subjects [2]; total eneboparatide, n = 39",3 (7.7) n (%)
same,"Nausea, subjects with TEAE","healthy subjects [2]; total eneboparatide, n = 39",8 (20.5) n (%)
same,"Somnolence, subjects with TEAE","healthy subjects [2]; total eneboparatide, n = 39",5 (12.8) n (%)
same,"nausea, subjects","healthy subjects [2]; transient, at 60, 90 and 120 μg",eight
same,anti-eneboparatide antibodies,healthy subjects [3],no anti-eneboparatide antibodies detected
same,"serum calcium, urinary calcium excretion and bone resorption biomarkers",animal models of HP,robust and sustained increases in serum calcium without increasing urinary calcium excretion or bone resorption biomarkers
same,tolerability and independence from conventional therapy,patients with cHP,well-tolerated and allowed independence from conventional therapy
